Data as given in the supplement of paper PMC12463676, “Small-molecule dissolution of stress granules by redox modulation benefits ALS models” (Nature Chemical Biology, 2025).

How the values were obtained:
lipoamide = compound: NC(=O)CCCCC1CCSS1 [lipoamide]; assay: thermal stability z-score vs DMSO; higher = more thermally stabilized by treatment; conditions: HeLa, lipoamide concentration 100 µM
Procedure: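 Cellular thermal proteome profiling in HeLa cells. Cells were treated with 100 µM lipoamide for 1 h, with or without 1 mM arsenate for a further 1 h, then heated to ten temperatures (37-66.3 °C), and soluble protein was quantified by TMT mass spectrometry relative to 0.1% DMSO controls. The thermal stability score (sum of log2 fold changes minus the abundance score) was transformed to a z-score; mean of n = 3 experiments.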

potassium arsenate = compound: O=[As]([O-])(O)O.[K+] [potassium arsenate]; assay: as above; conditions: HeLa; arsenate concentration 1 mM
Procedure: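 Cellular thermal proteome profiling in HeLa cells treated with 1 mM arsenate for 1 h (DMSO pretreatment), heated to ten temperatures (37-66.3 °C). Soluble protein was quantified by TMT mass spectrometry relative to DMSO controls; the thermal stability score was transformed to a z-score; mean of n = 3 experiments.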

[1] = arsenate co-treatment: 1 mM arsenate 1 h
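Note: each temperature applied for 3 min, abundance score taken as mean log2 fold change at the two lowest temperatures, z-score obtained by mean subtraction and division by SD.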

Sequence of UniProt Q8N543 (Q8N543 whole entry): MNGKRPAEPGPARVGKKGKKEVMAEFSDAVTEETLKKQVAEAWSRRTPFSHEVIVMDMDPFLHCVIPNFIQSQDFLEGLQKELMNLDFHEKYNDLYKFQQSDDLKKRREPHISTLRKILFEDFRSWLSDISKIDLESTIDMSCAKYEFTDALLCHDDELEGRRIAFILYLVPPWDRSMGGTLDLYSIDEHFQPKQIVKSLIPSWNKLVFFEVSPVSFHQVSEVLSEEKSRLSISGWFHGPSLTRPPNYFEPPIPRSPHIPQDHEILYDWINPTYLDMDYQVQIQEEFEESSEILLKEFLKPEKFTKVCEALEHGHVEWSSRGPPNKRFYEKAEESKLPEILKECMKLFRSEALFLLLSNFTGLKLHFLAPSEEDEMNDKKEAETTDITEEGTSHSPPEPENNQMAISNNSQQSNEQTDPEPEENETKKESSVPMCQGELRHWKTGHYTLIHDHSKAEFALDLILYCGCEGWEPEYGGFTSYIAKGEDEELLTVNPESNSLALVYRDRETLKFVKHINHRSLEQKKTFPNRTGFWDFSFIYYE
Sequence of UniProt Q9Y4P8 (Q9Y4P8 whole entry): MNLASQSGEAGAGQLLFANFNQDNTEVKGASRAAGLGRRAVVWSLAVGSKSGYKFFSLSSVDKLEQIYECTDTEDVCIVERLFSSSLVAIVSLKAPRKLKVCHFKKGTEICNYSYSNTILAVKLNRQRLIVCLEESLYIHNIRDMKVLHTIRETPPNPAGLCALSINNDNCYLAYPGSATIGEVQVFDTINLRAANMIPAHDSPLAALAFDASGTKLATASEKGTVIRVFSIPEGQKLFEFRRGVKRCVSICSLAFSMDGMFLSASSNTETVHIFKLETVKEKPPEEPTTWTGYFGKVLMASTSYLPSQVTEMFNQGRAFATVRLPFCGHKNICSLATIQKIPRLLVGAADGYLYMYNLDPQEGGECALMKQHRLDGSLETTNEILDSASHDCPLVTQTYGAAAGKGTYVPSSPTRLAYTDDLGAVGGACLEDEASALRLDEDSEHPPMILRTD
Sequence of UniProt Q9Y6C9 (Q9Y6C9 whole entry): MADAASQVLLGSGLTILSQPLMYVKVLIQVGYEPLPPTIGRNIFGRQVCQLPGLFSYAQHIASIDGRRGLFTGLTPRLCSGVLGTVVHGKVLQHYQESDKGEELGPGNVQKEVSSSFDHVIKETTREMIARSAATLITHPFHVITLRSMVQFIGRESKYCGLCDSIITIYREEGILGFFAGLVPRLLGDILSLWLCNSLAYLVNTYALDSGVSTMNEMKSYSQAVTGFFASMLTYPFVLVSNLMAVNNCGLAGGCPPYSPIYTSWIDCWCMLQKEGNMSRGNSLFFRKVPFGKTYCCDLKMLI
Sequence of UniProt O14981 (O14981 whole entry): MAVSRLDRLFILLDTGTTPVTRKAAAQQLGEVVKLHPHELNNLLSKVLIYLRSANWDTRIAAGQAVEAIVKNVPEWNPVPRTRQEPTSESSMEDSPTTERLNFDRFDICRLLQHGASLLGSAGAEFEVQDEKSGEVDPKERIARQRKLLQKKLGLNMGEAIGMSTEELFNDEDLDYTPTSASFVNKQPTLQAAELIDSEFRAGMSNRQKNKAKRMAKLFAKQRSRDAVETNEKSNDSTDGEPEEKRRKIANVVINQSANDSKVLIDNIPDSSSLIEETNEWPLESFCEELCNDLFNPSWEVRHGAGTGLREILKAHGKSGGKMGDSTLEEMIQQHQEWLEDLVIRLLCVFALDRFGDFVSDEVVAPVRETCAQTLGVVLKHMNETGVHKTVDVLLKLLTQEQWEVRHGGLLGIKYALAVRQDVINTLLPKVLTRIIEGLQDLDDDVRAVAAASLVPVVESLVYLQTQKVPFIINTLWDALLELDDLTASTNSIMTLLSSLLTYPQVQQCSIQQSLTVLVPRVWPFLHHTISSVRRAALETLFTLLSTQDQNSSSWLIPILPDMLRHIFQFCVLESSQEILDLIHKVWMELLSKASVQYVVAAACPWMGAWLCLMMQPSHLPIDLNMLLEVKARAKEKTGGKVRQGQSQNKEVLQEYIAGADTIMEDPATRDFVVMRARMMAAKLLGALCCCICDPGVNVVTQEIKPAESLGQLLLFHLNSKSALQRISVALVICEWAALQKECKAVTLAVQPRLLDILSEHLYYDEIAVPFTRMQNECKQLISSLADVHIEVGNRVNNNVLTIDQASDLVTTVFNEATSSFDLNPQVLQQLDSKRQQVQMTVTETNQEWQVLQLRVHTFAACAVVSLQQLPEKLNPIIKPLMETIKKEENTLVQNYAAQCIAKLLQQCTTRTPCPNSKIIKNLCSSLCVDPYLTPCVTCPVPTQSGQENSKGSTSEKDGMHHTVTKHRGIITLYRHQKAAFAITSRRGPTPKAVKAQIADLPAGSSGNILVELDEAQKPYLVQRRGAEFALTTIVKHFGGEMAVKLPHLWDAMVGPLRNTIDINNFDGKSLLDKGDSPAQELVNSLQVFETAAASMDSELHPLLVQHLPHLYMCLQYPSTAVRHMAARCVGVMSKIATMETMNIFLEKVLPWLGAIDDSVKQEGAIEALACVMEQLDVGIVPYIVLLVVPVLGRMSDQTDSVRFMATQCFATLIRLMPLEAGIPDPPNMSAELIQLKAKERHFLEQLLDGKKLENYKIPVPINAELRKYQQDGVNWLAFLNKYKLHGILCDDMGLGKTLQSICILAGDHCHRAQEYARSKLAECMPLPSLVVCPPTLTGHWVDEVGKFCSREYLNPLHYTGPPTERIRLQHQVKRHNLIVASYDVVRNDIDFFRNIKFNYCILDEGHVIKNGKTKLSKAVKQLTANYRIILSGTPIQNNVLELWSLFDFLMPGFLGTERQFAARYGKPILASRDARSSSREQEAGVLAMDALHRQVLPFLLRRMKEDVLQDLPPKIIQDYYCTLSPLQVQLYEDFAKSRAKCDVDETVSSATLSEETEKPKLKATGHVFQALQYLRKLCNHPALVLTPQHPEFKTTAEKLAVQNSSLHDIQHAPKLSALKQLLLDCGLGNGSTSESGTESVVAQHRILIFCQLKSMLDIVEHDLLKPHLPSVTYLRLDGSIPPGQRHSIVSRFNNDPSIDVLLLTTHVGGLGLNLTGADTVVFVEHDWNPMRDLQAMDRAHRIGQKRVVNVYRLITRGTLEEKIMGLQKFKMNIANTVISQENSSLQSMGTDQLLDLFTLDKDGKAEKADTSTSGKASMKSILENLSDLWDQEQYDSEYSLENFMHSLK
Sequence of UniProt Q9NP79 (Q9NP79 whole entry): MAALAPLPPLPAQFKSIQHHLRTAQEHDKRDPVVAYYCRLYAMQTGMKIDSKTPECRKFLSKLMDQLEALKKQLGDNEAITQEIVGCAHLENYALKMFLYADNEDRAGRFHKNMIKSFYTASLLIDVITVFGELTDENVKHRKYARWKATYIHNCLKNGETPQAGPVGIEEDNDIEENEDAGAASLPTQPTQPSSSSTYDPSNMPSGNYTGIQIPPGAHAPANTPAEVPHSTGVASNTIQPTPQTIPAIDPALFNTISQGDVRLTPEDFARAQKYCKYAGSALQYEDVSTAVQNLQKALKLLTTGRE
Sequence of UniProt Q9Y5Z4 (Q9Y5Z4 whole entry): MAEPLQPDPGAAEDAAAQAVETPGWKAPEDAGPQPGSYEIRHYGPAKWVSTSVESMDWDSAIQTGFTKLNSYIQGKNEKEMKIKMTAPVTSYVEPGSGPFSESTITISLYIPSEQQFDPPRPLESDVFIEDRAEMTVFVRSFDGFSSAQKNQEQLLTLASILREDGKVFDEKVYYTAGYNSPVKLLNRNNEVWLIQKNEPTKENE
Sequence of UniProt Q13884 (Q13884 whole entry): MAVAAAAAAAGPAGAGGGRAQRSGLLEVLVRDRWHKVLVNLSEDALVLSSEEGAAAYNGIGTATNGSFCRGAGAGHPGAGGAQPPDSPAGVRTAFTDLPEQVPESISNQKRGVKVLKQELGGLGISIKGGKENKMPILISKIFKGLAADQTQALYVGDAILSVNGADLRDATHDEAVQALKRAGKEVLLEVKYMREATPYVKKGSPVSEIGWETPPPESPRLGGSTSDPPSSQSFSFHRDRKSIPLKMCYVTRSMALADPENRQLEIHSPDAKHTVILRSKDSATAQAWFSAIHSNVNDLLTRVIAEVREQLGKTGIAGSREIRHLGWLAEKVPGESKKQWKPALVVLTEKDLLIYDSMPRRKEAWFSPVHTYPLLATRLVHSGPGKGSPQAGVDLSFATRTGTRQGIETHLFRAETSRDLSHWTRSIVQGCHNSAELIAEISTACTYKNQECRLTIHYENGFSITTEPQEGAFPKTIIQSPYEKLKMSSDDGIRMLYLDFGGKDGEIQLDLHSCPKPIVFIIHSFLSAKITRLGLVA
Sequence of UniProt Q9NVK5 (Q9NVK5 whole entry): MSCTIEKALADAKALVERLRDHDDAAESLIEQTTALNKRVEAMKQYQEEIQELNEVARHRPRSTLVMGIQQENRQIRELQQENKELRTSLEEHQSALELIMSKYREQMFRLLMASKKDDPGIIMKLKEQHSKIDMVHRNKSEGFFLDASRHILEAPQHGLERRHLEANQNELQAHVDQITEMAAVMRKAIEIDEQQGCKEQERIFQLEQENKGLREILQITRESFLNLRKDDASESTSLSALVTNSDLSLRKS
Sequence of UniProt Q7Z5Y7 (Q7Z5Y7 whole entry): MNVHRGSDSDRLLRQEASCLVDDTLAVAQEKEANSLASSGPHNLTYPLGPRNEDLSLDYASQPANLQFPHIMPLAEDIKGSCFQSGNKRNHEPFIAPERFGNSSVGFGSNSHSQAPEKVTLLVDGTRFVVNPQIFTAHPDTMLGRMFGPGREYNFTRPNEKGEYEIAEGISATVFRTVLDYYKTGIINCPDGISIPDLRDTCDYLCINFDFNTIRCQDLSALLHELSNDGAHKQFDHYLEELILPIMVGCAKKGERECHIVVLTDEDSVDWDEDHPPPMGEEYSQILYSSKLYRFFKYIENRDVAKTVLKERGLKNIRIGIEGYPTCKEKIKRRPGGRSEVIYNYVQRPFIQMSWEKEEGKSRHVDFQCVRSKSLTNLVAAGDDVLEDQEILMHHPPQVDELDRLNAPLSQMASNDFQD

Row | Target | thermal stability z-score (lipoamide; [1]) | thermal stability z-score (lipoamide; arsenate co-treatment: none) | thermal stability z-score (potassium arsenate)
1 | WIPI2 (UniProt Q9Y4P8) | 0.0343 | 0.463 | -0.0998
2 | GPHN (UniProt Q9NQX3) | -0.406 | -0.149 | -0.949
3 | RAD1 (UniProt O60671) | 1.26 | 0.445 | 1.31
4 | OGFOD1 (UniProt Q8N543) | 0.312 | -0.342 | 1.04
5 | KCTD20 (UniProt Q7Z5Y7) | -0.132 | -0.0693 | -0.0752
6 | VTA1 (UniProt Q9NP79) | 0.703 | 0.296 | -0.12
7 | PGM1 (UniProt P36871) | -0.181 | -0.205 | -0.103
8 | HEBP2 (UniProt Q9Y5Z4) | 0.891 | 0.694 | 0.0122
9 | PSIP1 (UniProt O75475) | 0.499 | 0.761 | -0.306
10 | BTAF1 (UniProt O14981) | 0.085 | 0.175 | -0.192
11 | KAT7 (UniProt O95251) | 0.116 | -0.0536 | -0.144
12 | SEZ6L2 (UniProt Q6UXD5) | 0.143 | 2.4 | 3.82
13 | UBE3A (UniProt Q05086) | 0.245 | -0.149 | 0.3
14 | MTCH2 (UniProt Q9Y6C9) | -0.0451 | 0.12 | 0.688
15 | MB21D2 (UniProt Q8IYB1) | 0.116 | -0.198 | 0.483
16 | FGFR1OP2 (UniProt Q9NVK5) | -0.0532 | 0.0859 | 0.0446
17 | SLC25A32 (UniProt Q9H2D1) | -0.958 | -1.17 | -0.601
18 | SNTB1 (UniProt Q13884) | -0.307 | 1.19 | 1.29
